Measurements as given in patent US12358859B2, “Series of compounds for treatment of skin diseases and other conditions” (Unigen, Inc., priority 2018, dated 2025).
Where two headings read alike, the source gives them in different places.

Legend:
[1] = system: murine melanoma cells B16-F1; experiment: Melanin production by murine melanoma cells B16-F1; type: cell-based; conditions: Mus musculus, B16-F1, 1 nM α-MSH, 48 hours
Protocol: Selected compounds were then tested for the ability to suppress melanin production by the murine melanoma cells B16-F1 as detailed below.
Murine melanoma cells B16-F1 were purchased from the ATCC (Cat #CRL-6323). Cell Titer96 AqueousOne Solution was purchased from Promega (Cat #G3582). 0.2 μm pore size, low protein binding filters were purchased from PALL Life Sciences. (Cat #PN4454).
Alpha-MSH was purchased from the Sigma Aldrich (Cat #M4135-1MG). All tissue culture reagents were purchased from VWR (phenol-red-free DMEM, cat #12001-630, L-glutamine, cat #12001-698) and Fisher Scientific (Trypsin-EDTA, cat #25-200-056).
The B16-F1 cells were maintained in cell growth media (DMEM/High Glucose supplemented with glutamine, 10% fetal bovine serum, 50 units/ml penicillin, and 50 units/mL of streptomycin) at 37° C. in a humidified atmosphere of 95% air and 5% CO2.
(§1) All test compounds were initially dissolved in 100% DMSO at a concentration of 400 mM. Then, 6 μL of 400 mM test compounds were added to 1.2 mL of the cell growth media giving a final concentration of 2 mM for the test compound and concentration of 0.5% for DMSO. The compounds were centrifuged for 1 h at 20,000×g. Supernatants (1 mL) were collected and filtered through sterile 0.2 μm filters. The compounds were serially diluted in two-fold increments in the sterile cell growth media supplemented with 0.5% DMSO, thus keeping the concentration of DMSO constant for all samples. These serially diluted compounds were subsequently used as two-fold concentrated stock solutions in the melanin production and cell viability assays. Equal volumes of 2× compounds were mixed with media containing 2 nM α-MSH to give a final concentration of 1 nM α-MSH, 0.5% DMSO, and 1× concentration of test compounds.
B16-F1 cells were seeded into the wells of clear-bottom 24-well plates at 50,000 cells per well, in 0.5 mL of cell growth media. On the following day, 0.5 mL of freshly prepared test compounds containing α-MSH were added to the wells. The cells were maintained at 37° C. in a humidified atmosphere of 95% air and 5% CO2 for 48 hours. At the end of the incubation period, melanin-containing conditioned media was removed from the cells and transferred to another plate. To measure melanin content the light absorbance of conditioned media was taken at 492 nm using a TECAN Genios plate reader.
(§2) More than 90% percent of the melanin produced by cultured melanoma cells is found in extra-cellular media. Therefore, at the end of the experiment melanin-containing media was collected and relative amounts of melanin were determined by absorption at 492 nm. Viability of cells was determined by a commonly used colorimetric procedure that is based on conversion of the tetrazolium compounds to colored formazan products (using Promega's CellTiter96 AqueousOne assay). Dehydrogenase enzymes in metabolically active cells accomplish this conversion, and the amount of formazan product is directly proportional to the number of living cells in culture. Mean (n=2) absorption of wells containing no cells was subtracted as blanks. The results were computed as percent of wells that contained the cells but no test compounds.

COX-2 = target: T1, COX-2 (Homo sapiens, UniProt P35354); experiment: COX-2 enzymatic inhibition assay; type: biochemical; conditions: for IC50: read-out: Anti-inflammatory (IC50) COX-2
T1 construct: purchased Cayman Chemical 701050
T1 sequence (P35354 18-604): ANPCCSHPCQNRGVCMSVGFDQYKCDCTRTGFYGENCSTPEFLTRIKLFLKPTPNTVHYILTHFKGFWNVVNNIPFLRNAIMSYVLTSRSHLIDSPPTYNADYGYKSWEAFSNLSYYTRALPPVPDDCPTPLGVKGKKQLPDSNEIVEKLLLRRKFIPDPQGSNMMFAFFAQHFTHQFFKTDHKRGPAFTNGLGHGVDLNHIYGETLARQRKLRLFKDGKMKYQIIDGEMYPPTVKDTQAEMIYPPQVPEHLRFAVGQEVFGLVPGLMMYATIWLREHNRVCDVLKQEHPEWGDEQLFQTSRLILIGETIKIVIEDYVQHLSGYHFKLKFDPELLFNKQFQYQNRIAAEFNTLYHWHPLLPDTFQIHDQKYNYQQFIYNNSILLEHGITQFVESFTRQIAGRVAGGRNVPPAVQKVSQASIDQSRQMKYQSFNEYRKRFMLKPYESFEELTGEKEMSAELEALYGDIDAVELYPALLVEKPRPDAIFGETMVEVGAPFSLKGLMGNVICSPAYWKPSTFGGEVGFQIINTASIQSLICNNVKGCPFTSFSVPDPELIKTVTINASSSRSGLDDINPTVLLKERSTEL
Protocol: In order to screen for compounds that inhibited COX-1 and Cox-2 activity, enzymatic inhibition assay kits were purchased from Cayman Chemical (cat #701050). Briefly, the compound being examined was treated against a fixed amount of COX-1 and COX-2 enzymes. A cleavable, peroxide chromophore was included in the assay to visualize the peroxidase activity of each enzyme in presence of arachidonic acid as […]. Typically, assays were performed in 96-well format. Each inhibitor, taken from a 1 M stock solution in 100% DMSO, was tested in duplicate at room temperature using the following range of concentrations: 1.9, 3.9, 7.8, 15.6, 31.2, 62.5, 125, 250, 500, and 1000 μM. To each well, 150 μL of Assay Buffer was added along with 10 μL of Hemin, 10 μL of inhibitor diluted in DMSO and 10 μL of either COX-1 or COX-2 enzyme. The compounds were incubated for 5 minutes at room temperature, followed by the addition of 20 μL of Colormietric Substrate solution and 20 μL of arachidonic acid solution to initiate the reaction. The plate was mixed and incubated for 2 minutes before reading the absorbance at 590 nm. The inhibitor concentration vs. % of inhibition was plotted and the IC50 determined.

[2] = system: murine melanoma cells B16-F1; experiment: Cell viability, tetrazolium reduction assay; type: cell-based
Protocol: as §1
Viability of cells was measured using standard tetrazolium reduction assay based on redox potential of live cells. Cells were seeded in a clear-bottom 96-well plate in RPMI 1640 media with Glutamax (Fisher Scientific, cat #61870036) at a density of 5,000 cells/well. Cells were treated with test compounds dissolved in 100 μL RPMI 1640 media and incubated for 48 hours at 37° C. in a humidified atmosphere of 95% air and 5% CO2.
After incubation, 20 μL of Aqueous One Solution were added to each well and the plate was returned to the incubator for 30 minutes. Conversion of tetrazolium was monitored by measuring absorbance of cell wells at 492 nm using a TECAN Genios plate reader.
as §2

[3] = Tables 1-3, read-out: MELANIN PRODUCTION
[4] = FIGS. 2-8, read-out: IC50, inhibition in the production of melanin

For CC(C)=CCCC(C)/C=C/c1ccc(O)cc1 (centres unmarked) [Compound 5, (E)-4-(3,7-dimethylocta-1,6-dienyl)phenol], the IC50 [1, 3] was 72 µM, the IC50 (COX-2) was 72 µM and the “CELL VIABILITY” value ([2]; mouse, 48 h) was 50 µM.

With CC(C)=CCC/C(C)=C/c1cc(O)cc(O)c1 [Compound 4, (E/Z)-5-(2,6-dimethylhepta-1,5-dienyl)benzene-1,3-diol] the IC50 [1, 4] was 72 µM, the IC50 [1, 3] was 72 µM and the IC50 (COX-2) was 245 µM. The “CELL VIABILITY” value ([2]; mouse, 48 h) was 127 µM.

For CC(C)=CCCC(C)/C=C/c1ccc(O)cc1O (centres unmarked) [Compound 6, (E)-4-(3,7-dimethylocta-1,6-dienyl) benzene-1,3-diol], the IC50 [1, 4] was 9 µM, the IC50 [1, 3] was 9 µM and the IC50 (COX-2) was 164 µM. For the same compound, the “CELL VIABILITY” value ([2]; 48 hours, Tables 1-3) was 233 µM and the “LD50, cell viability” value ([2]; mouse, 48 h) was 233 µM.

For CC(C)=CCCC(C)=Cc1ccc(O)cc1 (mixture of isomers) [Compound 1, (E/Z)-4-(2,6-dimethylhepta-1,5-dienyl)phenol], the IC50 [1, 4] was 158 µM, the IC50 [1, 3] was 158 µM and the “Anti-inflammatory (IC50) COX-2” value (COX-2) was “Not active”. For the same compound, the “CELL VIABILITY” value ([2]; 48 hours, Tables 1-3) was 269 µM and the “LD50, cell viability” value ([2]; mouse, 48 h) was 269 µM.

For CC(C)=CCCC(C)/C=C/c1cc(O)cc(O)c1 (centres unmarked) [Compound 7, (E)-5-(3,7-dimethylocta-1,6-dienyl) benzene-1,3-diol], the IC50 [1, 4] was 97 µM, the IC50 [1, 3] was 97 µM and the IC50 (COX-2) was 135 µM. The “CELL VIABILITY” value ([2]; 48 hours, Tables 1-3) was 152 µM and the “LD50, cell viability” value ([2]; mouse, 48 h) was 152 µM.

In the case of CC(C)=CCCC(C)C/C=C\c1cc(O)cc(O)c1 (centres unmarked) [Compound 15, (Z)-5-(4,8-dimethylnona-1,7-dienyl) benzene-1,3-diol], the IC50 [1, 4] is reported as 74 µM, the IC50 [1, 3] is reported as 158 µM and the “Anti-inflammatory (IC50) COX-2” value (COX-2) is reported as “No Inhibition”. The “CELL VIABILITY” value ([2]; mouse, 48 h) was 269 µM.
